From US20030119797A1, “Methods for selective immunomodulation” (priority 2001, published 2003)
“Also recorded” adds a separate entry of the source. Read-outs that look alike come from different tables or passages of the source. Each block holds one compound with its values, some of them ahead of it.

Legend:
[1] = tested on: psoriatic patients; conditions: human, in vivo
Experimental: A clinical study was initiated with an oral formulation of pimecrolimus to treat psoriatic patients. Pimecrolimus was evaluated as treatment for psoriasis using an oral dose of 60 mg (30 mg b.i.d) during a 4-week clinical study. The cohort included 10 patients; 8 received the treatment and 2 received a placebo.
The dose used in the study was 60 mg/day, given as 30 mg b.i.d. To make this dose the 20 mg tablets were cut in half using a special cutter (Tablettenteiler NR.96) so as to obtain 30 mg of pimecrolimus or a matched amount of placebo.
In this study the relationship of trough concentration to clinical results was also determined.

[2] = tested on: SCID mice reconstituted with CD4+CD45RBHi T cells (SCID-IBD); test: SCID-IBD mouse model, treatment started the day after T cell transfer; format: in vivo
Text: It is known that the transfer of syngeneic, naive T lymphocytes (CD4^+CD45RB^Hi) into SCID mice results in a severe colitis and wasting disease, SCID-IBD.
In this study, SCID mice reconstituted with CD4^+CD45RB^Hi T lymphocytes were used. These mice are known to develop chronic colitis with characteristics similar to human IBD, as described above.
[…] […] BW was monitored throughout. On termination, blood was withdrawn, spleen, mesenteric lymph nodes (MLN) and colon were removed. Serum haptoglobin levels were measured (ELISA), colitis was assessed histologically and lymphocyte and neutrophil numbers were calculated from FACS analysis of blood, spleen and MLN cell suspensions.
In order to determine the efficacy of ASM981 treatment in preventing intestinal mucosal damage in SCID-IBD mice, a histological examination of the colon sections was performed according to defined morphological parameters. All colon sections were assessed according to a scheme awarding degrees of severity governed by the extent of cell infiltration and inflammation with a score of 8 being the maximum.

[3] = in vivo, po
[4] = tested on: allergic contact dermatitis (ACD); test: Rat model of allergic contact dermatitis (ACD); format: in vivo; conditions: oral, same doses
[5] = tested on: allergic contact dermatitis (ACD); test: Skin inflammation and lymph nodes during sensitization and elicitation phase of ACD; format: in vivo
[6] = tested on: systemic immune responses; test: Models of systemic immunosuppression (graft-versus-host reaction, antibody formation to sheep red blood cells, kidney transplantation); format: in vivo, rat
Text: Pimecrolimus (also called ASM981 and ELIDEL®) is an ascomycin macrolactam-derivative with anti-inflammatory properties, chemical name is 33-epichloro-33-desoxy-ascomycin. Pimecrolimus is an ascomycin macrolactam-derivative developed originally for topical and oral treatment of inflammatory skin diseases such as atopic dermatitis and psoriasis. Pimecrolimus binds to macrophilin-12 and inhibits the Ca-dependent phosphatase calcineurin. As a consequence, it inhibits T cell activation and blocks the transcription and release of both Th1 and Th2 inflammatory cytokines. […] Tachyphylaxis has not been observed.

[7] = tested on: gene expression in blood cells; conditions: days 13 or 14 vs baseline, 30 mg b.i.d. oral
Experimental: Pimecrolimus was evaluated as treatment for psoriasis using an oral dose of 60 mg (30 mg b.i.d) during a 4-week clinical study. The cohort included 10 patients; 8 received the treatment and 2 received a placebo. Blood samples were collected before the first administration to establish the gene expression baseline and on days 13 or 14 after treatment with pimecrolimus or placebo and submitted to gene expression analysis in order to gain insights into the mechanisms of action of the compound.
The RNA from blood samples drawn from each patient in the study was extracted and tested on individual DNA microarrays, thus allowing, for each patient, a comparison of gene expression before and after pimecrolimus treatment. […] Genes that were consistently modulated were sorted in functional categories.

[8] = tested on: CYP3A enzyme subfamily; test: Elimination / metabolism of pimecrolimus; format: in vitro ADME
[9] = human, in vivo
Experimental: In this study pimecrolimus was rapidly absorbed with a median tmax across all the dose groups and collection days of between 0.8 and 2.0 hours. […] There was no effect of age or weight on the apparent clearance of pimecrolimus.

[10] = in vivo; conditions: rat, po, 25 mg/kg
Experimental: In another study designed to explore the differences between pimecrolimus and FK506 and to determine whether these differences might be associated with a different tissue distribution, the exposure to pimecrolimus and FK506 in various organs after oral administration were measured. Animals received 2 oral doses of 25 mg/kg in an interval of 2 hours. […] Pimecrolimus was found consistently to have a higher skin/blood concentration ratio than FK506 (2 hours: 7.3 vs. 2.8; 6 hours: 13 vs. […]; 24 hours: 36 vs. 6.0). The AUC0-24h in skin calculated for pimecrolimus was twice as high as with FK506.
These distribution characteristics are relevant not only for oral, but also for topical application, as the compound enters systemic circulation after permeation through the skin.

[11] = tested on: SCID mice reconstituted with CD4+CD45RBHi T cells (SCID-IBD); test: SCID-IBD mouse model, delayed treatment of established IBD; format: in vivo; conditions: 100 mg/kg/day p.o. started after 7, 14 or 21 days, until 41 days
Experimental: In order to determine if pimecrolimus is also effective once IBD is established, SCID mice were treated with pimecrolimus at a dose level of 100 mg/kg/day at days 7, 14 or 21 following the transfer of the disease causing CD4^+ T cells. The study was terminated after 41 days, i.e., the mice were treated for 33, 26 and 19 days, respectively. The results are shown in FIGS. 10-12, and described below.
SCID mice were reconstituted with 2×10^5 CD4^+CD45RB^Hi T cells and treatment with pimecrolimus (100 mg/kg/day p.o.) started after 7, 14 or 21 days and continued daily until 41 days. Treatment with the placebo formulation started after 7 days. BW was monitored once a week for the first 2 weeks and then twice weekly. Data are expressed as mean percent BW relative to the weight on day 0±s.e.m. for n=9 (PBS), n=8 (ASM(7d) & ASM(21d) and n=7 (ASM(14d) and placebo) mice per group. PBS refers to the non-transferred mice which have been pooled with regard to percent BW values since no treatment dependent changes were found. p<0.01 relative to the placebo-treated group at 41 days.
SCID mice were reconstituted with 2×10^5 CD4^+CD45RB^Hi T cells and treatment with pimecrolimus (100 mg/kg/day p.o.) started after 7,14 or 21 days and continued daily until 41 days. […] Data are expressed as mean haptoglobin (mg/mL)±s.e.m. for n=9 (PBS), n=8 (ASM(7d)) and n=7 (ASM(14d), ASM(21d) and placebo) mice per group. […]

[12] = tested on: allergen induced airway eosinophilia; test: Mouse model of asthma: aeroallergen induced eosinophil influx into the lungs of sensitized mice; format: in vivo
[13] = tested on: antigen-induced pulmonary eosinophilia; test: Rat model of asthma: antigen-induced pulmonary eosinophilia in actively sensitized Brown Norway Rats; format: in vivo; conditions: single and multiple challenge models
Text: Another study looked at the effects of oral administration of pimecrolimus on antigen-induced pulmonary eosinophilia in actively sensitized Brown Norway Rats.

[14] = tested on: mixed-lymphocyte reaction; test: mixed-lymphocyte reaction (MLR) assay; format: cell-based, mouse
Text: In addition to the IL-2 reporter gene assay, the concentration of immunosuppressants, such as pimecrolimus and FK506 can be measured by the mixed-lymphocyte reaction (see Meo, “The MLR in the Mouse”, Immunological Methods, Lefkovits and Pernis, Eds., p. 227 Academic Press, NY).

[15] = tested on: promoter for human IL-2; test: IL-2 reporter gene assay; format: cell-based; conditions: read-out: IC50 (concentration required for 50% inhibition)
Text: The reporter gene is any gene expressing a readily observable product, e.g., an enzyme marker such as β-galactosidase or luciferase, or any other suitable enzyme marker. For example, where the enzyme marker is β-galactosidase, the reporter gene is, e.g., a bacterial lacZ gene; where the enzyme marker is luciferase, the gene is, e.g., a Phorinus luciferase gene. […] The promoter gene is a promoter gene for a cytokine or protein for which transcription is stimulated or suppressed by the drug to be monitored.
Blood samples from the patient are diluted, their effect on gene expression in the above described system is measured, and the assay is standardized using known concentrations of the immunosuppressive material.

[16] = tested on: IBD patients; conditions: cited from earlier work

Compound: 33-epichloro-33-desoxy-ascomycin [Pimecrolimus]
change in physical examination, blood pressure, electrocardiogram, safety laboratory tests or renal function [1]: no clinically significant change was observed | serious adverse side effects [1]: no serious adverse side effects in any patient | colitis, histological examination of colon sections ([2]; 30 mg/kg/day p.o.): moderate to severe inflammation | colitis, histological examination of colon sections ([2]; 60 mg/kg/day p.o.): moderate | inhibition of lymphocyte numbers in blood, spleen and MLN ([2]; 100 mg/kg/day): not observed | mice with macroscopically normal feces ([2]; 100 mg/kg/day group): Approximately half of the mice | colitis, histological examination of colon sections ([2]; 100 mg/kg/day p.o.): only mildly inflamed colons | neutrophil infiltration into the colon (myeloperoxidase activity in colon homogenates) ([2]; 100 mg/kg/day p.o.): completely blocked | loss of BW associated with the disease ([2]; oral, 4 weeks, dose range 30-100 mg/kg/day, dose-responsive): prevented the severe loss of BW | diarrhea ([2]; p.o., 30-100 mg/kg/day): improved in a dose-dependent fashion | severe colitis relative to placebo-treated SCID-IBD mice ([2]; p.o., 30-100 mg/kg/day): significantly inhibited | drug accumulation [3]: does not lead to drug accumulation in the blood or tissues | efficacy compared to FK506 [4]: superior | primary site of action [5]: primarily interferes with inflammation in the skin | therapeutic window of anti-inflammatory activity in the skin versus systemic immunosuppression as compared to FK506 ([6]; rats, q.d., s.c.): clearly increased therapeutic window | systemic immunosuppressive effects compared to CyA or FK506 ([6]; transplantation and vaccination models): only a low potential to impair systemic immune responses; also recorded: minimal general systemic immunosuppressive effects | expression of Kallistatin [7]: up-regulated | expression of asthma related genes (RANTES, GALECTIN-3, Thromboxane A2 receptor, Glutathione peroxidase) [7]: specifically and significantly down-regulated | expression of genes necessary for chemotaxis and cellular migration (LFA-1, P-selectin ligand, L-selectin) [7]: dramatic down-regulation | expression of genes of the Macrolactam target pathway (macrophilin 12), cellular activation and proliferation (Histone2, Histone 3.3, cyclin D2) [7]: down-regulate | expression of inflammatory mediators (Leukotriene A4 hydrolase, prostaglandin endoperoxide synthase) [7]: strongly down regulate | route of elimination [8]: predominantly via metabolism involving an oxidative mechanism catalyzed by the CYP3A enzyme subfamily | time to steady-state [9]: 6 to 13 days | dose dependence of Cmax and AUCτ ([9]; po): dose proportional | effect of age or weight on the apparent clearance ([9]; po): no effect | trough concentration associated with a significant clinical response in the target epithelial tissue ([9]; po): ≥ 7 ng/mL | AUCτ,b Mean ± SD ([9]; po, 10 mg): 102.8 ± 41 .4 ng · h/mL | Cmax,b Mean ± SD ([9]; po, 20 mg): 42 4 ± 10.8 ng/mL | AUC0-24h in skin relative to FK506 [10]: twice as high | exposure in all other tissues, including blood, lymph nodes and kidney [10]: lower than to FK506 | blood and spleen neutrophilia associated with established/ongoing colitis [11]: strongly inhibits | loss of BW associated with established/ongoing mild to severe colitis [11]: highly-effective in reversing the loss of BW | allergen induced airway eosinophilia and IL-4 cytokine production ([12]; mouse, single and multiple challenge models): inhibit | eosinophil count in the lung and eosinophil peroxidase activity ([12]; sensitized mice, oral administration): able to reduce | allergen induced airway eosinophilia and IL-4 cytokine production [13]: inhibit | IC50 [14]: 9 nM | IC50 [15]: 1.5 nM

Compound: Cn1cnc([N+](=O)[O-])c1Sc1ncnc2nc[nH]c12 [AZA, Azathioprine, reference compound]
patients who get pancreatitis or more severe allergic reactions ([16]; human, in vivo): 3-15%

Compound: C=CC[C@@H]1/C=C(\C)C[C@H](C)C[C@H](OC)[C@H]2O[C@@](O)(C(=O)C(=O)N3CCCC[C@H]3C(=O)O[C@H](/C(C)=C/[C@@H]3CC[C@@H](O)[C@H](OC)C3)[C@H](C)[C@@H](O)CC1=O)[C@H](C)C[C@@H]2OC [FK506, tacrolimus, reference compound]
primary site of action [5]: acts primarily on the subcutaneous lymphoid tissue | Kp at 2 h [10]: 2.8 | Kp at 24 h [10]: 6 | skin/blood concentration ratio ([10]; 6 h): 1.6 | IC50 ([14]; Mus musculus): 1 nM

Compound: O=C(O)c1cc(/N=N/c2ccc(S(=O)(=O)Nc3ccccn3)cc2)ccc1O [Sulphasalazine, reference compound]
healthy control subjects reporting side effects related to the sulphapyridine moiety ([16]; healthy control subjects): ≤ 80% | patients reporting side effects related to the sulphapyridine moiety ([16]; patients): up to 45%

BW at the doses needed to inhibit colitis ([2]; 3 and 10 mg/kg/day p.o.): steroid-related accelerated loss in BW
Compound: C[C@@H]1C[C@H]2[C@@H]3CCC4=CC(=O)C=C[C@]4(C)[C@@]3(F)[C@@H](O)C[C@]2(C)[C@@]1(O)C(=O)CO [dexamethasone, Dexamethasone, reference compound]

Compound: Infliximab: chimeric anti-TNF alpha antibody
patients in whom remission is achieved ([16]; CD patients, infusion): up to 60% | patients who develop side effects ([16]; e.g., nausea, upper respiratory tract infections, abdominal pain and headache): up to 60% | patient population which develops human anti-chimeric antibodies ([16]; human, in vivo): 13-30% | patients who suffered serious infusion reactions ([16]; human, in vivo): Sixteen percent
